Source: PubChem BioAssay (NCI)
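Protocol summary: plate cells (96-well), add compound at 5 concentrations, incubate 48 h, interpolate endpoints linearly. TGI: total growth inhibition.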

How the values were obtained:
Assay in all cases: NCI anticancer screen, dose series, 48 h
[1] = test system: 786-0 renal
[2] = test system: A498 renal
[3] = test system: A549 NSCLC
[4] = test system: ACHN renal
[5] = test system: CAKI-1 renal
[6] = test system: CCRF-CEM leukemia
[7] = test system: COLO 205 colon
[8] = test system: DLD-1 colon
[9] = test system: DMS 114 small cell lung
[10] = test system: DMS 273 small cell lung
[11] = test system: EKVX NSCLC
[12] = test system: HCC-2998 colon
[13] = test system: HCT-116 colon
[14] = test system: HCT-15 colon
[15] = test system: HL-60(TB) leukemia
[16] = test system: HOP-18 NSCLC
[17] = test system: HOP-92 NSCLC
[18] = test system: HT29 colon
[19] = test system: IGROV1 ovarian
[20] = test system: K-562 leukemia
[21] = test system: KM12 colon
[22] = test system: LOX IMVI melanoma
[23] = test system: LXFL 529 NSCLC
[24] = test system: M14 melanoma
[25] = test system: M19-MEL melanoma
[26] = test system: MALME-3M melanoma
[27] = test system: MOLT-4 leukemia
[28] = test system: NCI-H226 lung
[29] = test system: NCI-H23 lung
[30] = test system: NCI-H460 lung
[31] = test system: NCI-H522 lung
[32] = test system: OVCAR-3 ovarian
[33] = test system: OVCAR-8 ovarian
[34] = test system: RPMI-8226 leukemia
[35] = test system: RXF 393 renal
[36] = test system: SF-295 CNS
[37] = test system: SF-539 CNS
[38] = test system: SK-MEL-28 melanoma
[39] = test system: SK-MEL-5 melanoma
[40] = test system: SK-OV-3 ovarian
[41] = test system: SN12C renal
[42] = test system: SNB-75 CNS
[43] = test system: SNB-78 CNS
[44] = test system: SW-620 colon
[45] = test system: TK-10 renal
[46] = test system: U251 CNS
[47] = test system: UACC-257 melanoma
[48] = test system: UACC-62 melanoma
[49] = test system: UO-31 renal

Measured: TGI

O=c1cc[nH]cc1-c1c[nH]ccc1=O
> 100 µM: [1] | [2] | [3] | [4] | [5] | [6] | [7] | [8] | [9] | [10] | [11] | [12] | [13] | [14] | [15] | [16] | [17] | [18] | [19] | [20] | [21] | [22] | [23] | [24] | [25] | [26] | [27] | [28] | [29] | [30] | [31] | [32] | [33] | [34] | [35] | [36] | [37] | [38] | [39] | [40] | [41] | [42] | [43] | [44] | [45] | [46] | [47] | [48] | [49]
